Read-outs that look alike come from different tables or passages of the source.

The target in the test is T1, mouseTAAR1 (Mus musculus, UniProt Q923Y8).
T1 construct: expressed in transfected cells; host or cells: HEK293 (ATCC #CRL-1573), stably transfected with pIRESneo2 expression plasmid; membrane preparation
Kind of test: Radioligand binding on membranes of HEK293 cells stably expressing TAAR1. How it is done:
For the construction of expression plasmids the coding sequences of human, rat and mouse TAAR 1 were amplified from genomic DNA essentially as described by Lindemann et al.. The Expand High Fidelity PCR System (Roche Diagnostics) was used with 1.5 mM Mg^2+ and purified PCR products were cloned into pCR2.1-TOPO cloning vector (Invitrogen) following the instructions of the manufacturer. PCR products were subcloned into the pIRESneo2 vector (BD Clontech, Palo Alto, Calif.), and expression vectors were sequence verified before introduction in cell lines.
For the generation of stably transfected cell lines HEK293 cells were transfected with the pIRESneo2 expression plasmids containing the TAAR coding sequences (described above) with Lipofectamine 2000 (Invitrogen) according to the instructions of the manufacturer, and 24 hrs post transfection the culture medium was supplemented with 1 mg/ml G418 (Sigma, Buchs, Switzerland). After a culture period of about 10 d clones were isolated, expanded and tested for responsiveness to trace amines (all compounds purchased from Sigma) with the cAMP Biotrak Enzyme immunoassay (EIA) System (Amersham) following the non-acetylation EIA procedure provided by the manufacturer.
Cells at confluence were rinsed with ice-cold phosphate buffered saline without Ca^2+ and Mg^2+ containing 10 mM EDTA and pelleted by centrifugation at 1000 rpm for 5 min at 4° C. The pellet was then washed twice with ice-cold phosphate buffered saline and cell pellet was frozen immediately by immersion in liquid nitrogen and stored until use at −80° C. Cell pellet was then suspended in 20 ml HEPES-NaOH (20 mM), pH 7.4 containing 10 mM EDTA, and homogenized with a Polytron (PT 3000, Kinematica) at 10,000 rpm for 10 s. The homogenate was centrifuged at 48,000×g for 30 min at 4° C. and the pellet resuspended in 20 ml HEPES-NaOH (20 mM), pH 7.4 containing 0.1 mM EDTA (buffer A), and homogenized with a Polytron at 10,000 rpm for 10 s. The homogenate was then centrifuged at 48,000×g for 30 min at 4° C. and the pellet resuspended in 20 ml buffer A, and homogenized with a Polytron at 10,000 rpm for 10 s. Protein concentration was determined by the method of Pierce (Rockford, Ill.). The homogenate was then centrifuged at 48,000×g for 10 min at 4° C., resuspended in HEPES-NaOH (20 mM), pH 7.0 including MgCl2 (10 mM) and […] homogenized with a Polytron at 10,000 rpm for 10 s.
Binding assay was performed at 4° C. in a final volume of 1 ml, and with an incubation time of 30 min. […] Competing ligands were tested in a wide range of concentrations (10 pM-30 μM). […] Each experiment was performed in duplicate. All incubations were terminated by rapid filtration through UniFilter-96 plates (Packard Instrument Company) and glass filter GF/C, pre-soaked for at least 2 h in polyethylenimine 0.3%, and using a Filtermate 96 Cell Harvester (Packard Instrument Company). The tubes and filters were then washed 3 times with 1 ml aliquots of cold buffer B. Filters were not dried and soaked in Ultima gold (45 μl/well, Packard Instrument Company) and bound radioactivity was counted by a TopCount Microplate Scintillation Counter (Packard Instrument Company).

Setting [1] is: mouseTAAR1, competition with [3H]-rac-2-(1,2,3,4-tetrahydro-1-naphthyl)-2-imidazoline, 4° C., 30 min, read-out: Ki.

T1 sequence (Q923Y8 whole entry): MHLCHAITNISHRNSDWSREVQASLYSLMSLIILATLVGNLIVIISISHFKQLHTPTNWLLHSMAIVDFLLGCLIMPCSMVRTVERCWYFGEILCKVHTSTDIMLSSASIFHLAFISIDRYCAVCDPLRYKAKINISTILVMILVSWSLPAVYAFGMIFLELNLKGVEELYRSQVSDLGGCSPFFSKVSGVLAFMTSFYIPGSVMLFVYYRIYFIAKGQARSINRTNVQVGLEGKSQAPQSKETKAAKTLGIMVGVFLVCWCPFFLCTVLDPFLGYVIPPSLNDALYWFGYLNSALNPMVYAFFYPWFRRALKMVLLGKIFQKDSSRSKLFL

For the compound `CCCC(c1ccccc1)c1c[nH]cn1` (racemic) [Example 1, rac-4-(1-Phenyl-butyl)-1H-imidazole], the inhibitory constant (Ki) worked out at 49 nM.
In the case of `CC(c1cnc[nH]1)c1ccccc1F` (racemic) [Example 2, rac-4-[1-(2-Fluoro-phenyl)-ethyl]-1H-imidazole], the Ki came out at 12 nM.
As for `CCC(c1cc(F)cc(F)c1)c1cnc[nH]1` (racemic) [Example 4, rac-4-[1-(3,5-Difluoro-phenyl)-propyl]-1H-imidazole], the affinity corresponds to a Ki of 28 nM.
Regarding `CCC(c1ccccc1)c1cnc[nH]1` (racemic) [Example 5, rac-4-(1-Phenyl-propyl)-1H-imidazole], the Ki turned out to be 36 nM.
Still for that read-out and setting: as for `CCC(c1cnc[nH]1)c1ccccc1F` (racemic) [Example 6, rac-4-[1-(2-Fluoro-phenyl)-propyl]-1H-imidazole], the figure is 22 nM.
Regarding `CCC(c1cccc(F)c1)c1cnc[nH]1` (racemic) [Example 7, rac-4-[1-(3-Fluoro-phenyl)-propyl]-1H-imidazole], the Ki is 32 nM.
Compound `CC(c1ccccc1)c1cnc[nH]1` (racemic) [Example 14, rac-4-(1-Phenyl-ethyl)-1H-imidazole] showed a Ki of 4 nM.
On the same count and under the same terms, as for `CC(c1cccc(F)c1)c1cnc[nH]1` (racemic) [Example 15, rac-4-[1-(3-Fluoro-phenyl)-ethyl]-1H-imidazole], the figure is 19 nM.
Compound `CC(c1cnc[nH]1)c1cccc(F)c1F` (racemic) [Example 17, rac-4-[1-(2,3-Difluoro-phenyl)-ethyl]-1H-imidazole] had a Ki of 11 nM.
For `CCC(c1cnc[nH]1)c1cccc(F)c1F` (racemic) [Example 20, rac-4-[1-(2,3-Difluoro-phenyl)-propyl]-1H-imidazole], the Ki is 18 nM.
Compound `CC(c1c[nH]cn1)c1cccc2ccccc12` (racemic) [Example 40, rac-4-(1-Naphthalen-1-yl-ethyl)-1H-imidazole] returned a Ki of 3 nM.
In turn, `Fc1cccc(Cl)c1Cc1cnc[nH]1` [Example 12, 4-(2-Chloro-6-fluoro-benzyl)-1H-imidazole] had a Ki of 19 nM.
For `Cc1cccc(Cc2c[nH]cn2)c1C` [Example 25, 4-(2,3-Dimethyl-benzyl)-1H-imidazole, reference compound], under setting [1], the Ki is 43 nM.
The compound `CCc1cccc(CC)c1Cc1cnc[nH]1` [Example 26, 4-(2,6-Diethyl-benzyl)-1H-imidazole] gave a Ki of 10 nM.
Regarding `Brc1ccccc1Cc1cnc[nH]1` [Example 27, 4-(2-Bromo-benzyl)-1H-imidazole], the Ki was 34 nM.
As to `Cc1cccc(C)c1Cc1cnc[nH]1` [Example 29, 4-(2,6-Dimethyl-benzyl)-1H-imidazole], the Ki stood at 4 nM.
In the case of `Cc1cc(C)c(C)c(Cc2cnc[nH]2)c1C` [Example 31, 4-(2,3,5,6-Tetramethyl-benzyl)-1H-imidazole], the affinity, expressed as Ki, was 16 nM.
Turning to `Clc1cccc(Cl)c1Cc1cnc[nH]1` [Example 33, 4-(2,6-Dichloro-benzyl)-1H-imidazole], the Ki is 3 nM.
Take `c1ccc2cc(Cc3c[nH]cn3)ccc2c1` [Example 39, 4-Naphthalen-2-ylmethyl-1H-imidazole]: the affinity, expressed as Ki, was 29 nM.
`CC(C)(c1ccccc1)c1cnc[nH]1` [Example 41, 5-(1-methyl-1-phenyl-ethyl)-1H-imidazole trifluoro-acetate] came in with a Ki of 46.1 nM.
Regarding `C[C@@H](c1cnc[nH]1)c1cccc(F)c1F` [Example 46, 4-[(R)-1-(2,3-Difluoro-phenyl)-ethyl]-1H-imidazole], the Ki is 7.8 nM.
`Brc1cc(Cc2c[nH]cn2)c2occc2c1` [Example 49, 4-(5-Bromo-benzofuran-7-ylmethyl)-1-imidazole] yielded a Ki of 0.9 nM.
Same read-out and setting: the figure for `c1cc2c(c(Cc3cnc[nH]3)c1)OCC2` [Example 50, 4-(2,3-Dihydro-benzofuran-7-ylmethyl)-1-imidazole] is 20.2 nM.
The compound `c1cc(Cc2cnc[nH]2)c2occc2c1` [Example 51, 4-Benzofuran-7-ylmethyl-1-imidazole] showed a Ki of 9.3 nM.
Still for that read-out and setting: the figure for `CCc1cccc(C)c1Cc1cnc[nH]1` [Example 57, 4-(2-Ethyl-6-methyl-benzyl)-1H-imidazole] is 10.8 nM; for `CCc1cccc(C2CC2)c1Cc1cnc[nH]1` [Example 58, 4-(2-Cyclopropyl-6-ethyl-benzyl)-1H-imidazole] it is 9.8 nM.
`Clc1ccc(Oc2cccc(Cc3cnc[nH]3)c2)cc1` [Example 60, 4-[3-(4-Chloro-phenoxy)-benzyl]-1H-imidazole] yielded an inhibition constant Ki of 27.6 nM.
The compound `CCc1cccc(Cl)c1Cc1cnc[nH]1` [Example 61, 4-(2-Chloro-6-ethyl-benzyl)-1H-imidazole] yielded a Ki of 11.5 nM.
As to `c1ccc(-c2ccccc2Cc2cnc[nH]2)cc1` [Example 67, 4-Biphenyl-2-ylmethyl-1H-imidazole], the affinity, expressed as Ki, was 27.6 nM.
In turn, `CCc1cc(OC)cc(CC)c1Cc1cnc[nH]1` [Example 69, 4-(2,6-Diethyl-4-methoxy-benzyl)-1H-imidazole] registered a Ki of 2.6 nM.
Consider `CCc1ccc(OC)c(CC)c1Cc1cnc[nH]1` [Example 70, 4-(2,6-Diethyl-3-methoxy-benzyl)-1H-imidazole], for which the affinity, expressed as Ki, was 3.8 nM.
As for `c1ccc(-c2cccc(Cc3cnc[nH]3)c2)cc1` [Example 71, 4-Biphenyl-3-ylmethyl-1H-imidazole], the inhibition constant Ki was determined as 39.1 nM.
`CCOc1cc(CC)c(Cc2cnc[nH]2)c(CC)c1` [Example 72, 4-(4-Ethoxy-2,6-diethyl-benzyl)-1H-imidazole]: the Ki was found to be 12.7 nM.
With `CCc1cc(OCc2ccccc2)cc(CC)c1Cc1cnc[nH]1` [Example 73, 4-(4-Benzyloxy-2,6-diethyl-benzyl)-1H-imidazole], the Ki under setting [1] turned out to be 11.7 nM.
Turning to `CCOc1ccc(CC)c(Cc2cnc[nH]2)c1CC` [Example 74, 4-(3-Ethoxy-2,6-diethyl-benzyl)-1H-imidazole], the inhibition constant (Ki) amounted to 3.7 nM.
`CCc1cccc(F)c1Cc1cnc[nH]1` [Example 78, 4-(2-Ethyl-6-fluoro-benzyl)-1H-imidazole] returned a Ki of 17.9 nM.
As for `CCc1cc(Oc2ccccc2)cc(CC)c1Cc1cnc[nH]1` [Example 79, 4-(2,6-Diethyl-4-phenoxy-benzyl)-1H-imidazole], the Ki turned out to be 5.6 nM.
On the same count and under the same terms, as for `CCc1ccc(Oc2ccccc2)c(CC)c1Cc1cnc[nH]1` [Example 80, 4-(2,6-Diethyl-3-phenoxy-benzyl)-1H-imidazole], the figure is 13.9 nM.
Turning to `Cc1ccc2ccccc2c1Cc1cnc[nH]1` [Example 572, 4-(2-Methyl-naphthalen-1-ylmethyl)-1H-imidazole], the Ki is 5.6 nM.

(Values after patent US8158668B2, “Methods for treating CNS disorders with 4-imidazole derivatives” (Hoffmann-La Roche Inc., priority 2006, dated 2012).)
